Measured values: patent US5622966A, “7-substituted quinolones and naphthyridones as antibacterial agents” (Warner-Lambert Company, priority 1995, dated 1997)
In brackets after ≈: the same amount, converted by molar mass.

Tests used:
Experiment in all cases: In vitro antibacterial activity, microtitration dilution method (MIC)
Assay type in all cases: cell-based
Streptococcus pyog. = conditions: read-out: Minimal Inhibitory Concentration MIC
Source text: (§1) The compounds of the invention display antibacterial activity when tested by the microtitration dilution method as described in Heifetz, et al, Antimicr. Agents & Chemoth. 6:124 (1974), which is incorporated herein by reference.
(§2) By use of the above reference method, the following minimum inhibitory concentration value (MICs in μg/mL) shown in Table I were obtained for representative compounds of the invention.

S. aureus R = conditions: Staphylococcus aureus, read-out: Minimal Inhibitory Concentration MIC
Source text: as §1, §2

E. coli Vogel = conditions: Escherichia coli, read-out: Minimal Inhibitory Concentration MIC
Source text: as §1, §2

Prot. rettg. = conditions: read-out: Minimal Inhibitory Concentration MIC
Source text: as §1, §2

S. aureus S = conditions: Staphylococcus aureus, read-out: Minimal Inhibitory Concentration MIC
Source text: as §1, §2

Enter. cloac. = conditions: read-out: Minimal Inhibitory Concentration MIC
Source text: as §1, §2

Streptococcus faec. = conditions: read-out: Minimal Inhibitory Concentration MIC
Source text: as §1, §2

Kleb. pneu. = conditions: read-out: Minimal Inhibitory Concentration MIC
Source text: as §1, §2

Pseu. aeru. = conditions: read-out: Minimal Inhibitory Concentration MIC
Source text: as §1, §2

Streptococcus pneum. = conditions: read-out: Minimal Inhibitory Concentration MIC
Source text: as §1, §2

Row | MIC (Streptococcus pyog.) [µg/mL] | MIC (S. aureus R) [µg/mL] | MIC (E. coli Vogel) [µg/mL] | MIC (Prot. rettg.) [µg/mL] | MIC (S. aureus S) [µg/mL] | MIC (Enter. cloac.) [µg/mL] | MIC (Streptococcus faec.) [µg/mL] | MIC (Kleb. pneu.) [µg/mL] | MIC (Pseu. aeru.) [µg/mL] | MIC (Streptococcus pneum.) [µg/mL] | Compound
1 | 0.025 (≈ 0.0635 µM) | 0.006 (≈ 0.0153 µM) | 0.1 (≈ 0.254 µM) | 0.2 (≈ 0.508 µM) | ≤ 0.003 | 0.1 (≈ 0.254 µM) | 0.025 (≈ 0.0635 µM) | 0.2 (≈ 0.508 µM) | 0.8 (≈ 2.03 µM) | 0.025 (≈ 0.0635 µM) | O=C(O)c1cn(C2CC2)c2cc(N3CCC(c4cccnc4)C3)c(F)cc2c1=O (stereo not shown) [Example 21, 1-Cyclopropyl-6-fluoro-1,4-dihydro-4-oxo-7-[3-(3-pyridinyl)-1-pyrrolidinyl]-3-quinolinecarboxylic acid]
2 | 0.013 (≈ 0.0286 µM) | 0.013 (≈ 0.0286 µM) | 0.1 (≈ 0.22 µM) | 0.2 (≈ 0.44 µM) | ≤ 0.003 | 0.1 (≈ 0.22 µM) | 0.013 (≈ 0.0286 µM) | 0.2 (≈ 0.44 µM) | 0.8 (≈ 1.76 µM) | 0.013 (≈ 0.0286 µM) | NCc1ccc(C2CCN(c3c(F)c(N)c4c(=O)c(C(=O)O)cn(C5CC5)c4c3F)C2)cc1 (stereo not shown) [Example 11, 5-Amino-7-[3-[4-(aminomethyl)phenyl]-1-pyrrolidinyl]-1-cyclopropyl-6,8-difluoro-1,4-dihydro-4-oxo-3-quinolinecarboxylic acid]
3 | 0.013 (≈ 0.0286 µM) | 0.013 (≈ 0.0286 µM) | 0.05 (≈ 0.11 µM) | 0.2 (≈ 0.44 µM) | ≤ 0.003 | 0.05 (≈ 0.11 µM) | 0.013 (≈ 0.0286 µM) | 0.1 (≈ 0.22 µM) | 0.8 (≈ 1.76 µM) | 0.006 (≈ 0.0132 µM) | NCc1cccc(C2CCN(c3c(F)c(N)c4c(=O)c(C(=O)O)cn(C5CC5)c4c3F)C2)c1 (stereo not shown) [Example 8, 5-Amino-7-[3-[3-(aminomethyl)phenyl]-1-pyrrolidinyl]-1-cyclopropyl-6,8-difluoro-1,4-dihydro-4-oxo-3-quinolinecarboxylic acid]
4 | 0.013 (≈ 0.0277 µM) | 0.013 (≈ 0.0277 µM) | 0.2 (≈ 0.427 µM) | 0.4 (≈ 0.854 µM) | 0.006 (≈ 0.0128 µM) | 0.2 (≈ 0.427 µM) | 0.025 (≈ 0.0534 µM) | 0.4 (≈ 0.854 µM) | 1.6 (≈ 3.42 µM) | 0.013 (≈ 0.0277 µM) | CNCc1ccc(C2CCN(c3c(F)c(N)c4c(=O)c(C(=O)O)cn(C5CC5)c4c3F)C2)cc1 (stereo not shown) [Example 15, 5-Amino-1-cyclopropyl-6,8-difluoro-1,4-dihydro-7-[3-[4-[(methylamino)methyl]phenyl]-1-pyrrolidinyl]-4-oxo-3-quinolinecarboxylic acid]
5 | 0.025 (≈ 0.0549 µM) | 0.025 (≈ 0.0549 µM) | 0.05 (≈ 0.11 µM) | 0.2 (≈ 0.439 µM) | 0.013 (≈ 0.0285 µM) | 0.05 (≈ 0.11 µM) | 0.025 (≈ 0.0549 µM) | 0.1 (≈ 0.22 µM) | 1.6 (≈ 3.51 µM) | 0.025 (≈ 0.0549 µM) | NCc1cccnc1C1CCN(c2c(F)c(N)c3c(=O)c(C(=O)O)cn(C4CC4)c3c2F)C1 (stereo not shown) [Example 29, 5-Amino-7-[3-[3-(aminomethyl)-2-pyridinyl]-1-pyrrolidinyl]-1-cyclopropyl-6,8-difluoro-1,4-dihydro-4-oxo-3-quinolinecarboxylic acid]
6 | 0.025 (≈ 0.0592 µM) | 0.05 (≈ 0.118 µM) | 0.1 (≈ 0.237 µM) | 0.4 (≈ 0.947 µM) | 0.013 (≈ 0.0308 µM) | 0.1 (≈ 0.237 µM) | 0.05 (≈ 0.118 µM) | 0.2 (≈ 0.473 µM) | 1.6 (≈ 3.79 µM) | 0.025 (≈ 0.0592 µM) | NCc1ccccc1C1CCN(c2nc3c(cc2F)c(=O)c(C(=O)O)cn3C2CC2)C1 (stereo not shown) [Example 1, 7-[3-[2-(Aminomethyl)phenyl]-1-pyrrolidinyl]-1-cyclopropyl-6-fluoro-1,4-dihydro-4-oxo-1,8-naphthyridine-3-carboxylic acid]
7 | 0.013 (≈ 0.0299 µM) | 0.013 (≈ 0.0299 µM) | 0.2 (≈ 0.459 µM) | 0.4 (≈ 0.918 µM) | 0.006 (≈ 0.0138 µM) | 0.2 (≈ 0.459 µM) | 0.025 (≈ 0.0574 µM) | 0.4 (≈ 0.918 µM) | 1.6 (≈ 3.67 µM) | 0.013 (≈ 0.0299 µM) | CNCc1ccc(C2CCN(c3cc4c(cc3F)c(=O)c(C(=O)O)cn4C3CC3)C2)cc1 (stereo not shown) [Example 14, 1-Cyclopropyl-6-fluoro-1,4-dihydro-7-[3-[4-[(methylamino)methyl]phenyl]-1-pyrrolidinyl]-4-oxo-3-quinolinecarboxylic acid]

More lines, now with the values behind:

Row | Compound | MIC (Streptococcus pyog.) [µg/mL] | MIC (S. aureus R) [µg/mL] | MIC (E. coli Vogel) [µg/mL] | MIC (Prot. rettg.) [µg/mL] | MIC (S. aureus S) [µg/mL] | MIC (Enter. cloac.) [µg/mL] | MIC (Streptococcus faec.) [µg/mL] | MIC (Kleb. pneu.) [µg/mL] | MIC (Pseu. aeru.) [µg/mL] | MIC (Streptococcus pneum.) [µg/mL]
8 | NCc1cccc(C2CCN(c3nc4c(cc3F)c(=O)c(C(=O)O)cn4C3CC3)C2)c1 (stereo not shown) [Example 6, 7-[3-[3-(Aminomethyl)phenyl]-1-pyrrolidinyl]-1-cyclopropyl-6-fluoro-1,4-dihydro-4-oxo-1,8-naphthyridine-3-carboxylic acid] | 0.006 (≈ 0.0142 µM) | 0.013 (≈ 0.0308 µM) | 0.05 (≈ 0.118 µM) | 0.1 (≈ 0.237 µM) | 0.006 (≈ 0.0142 µM) | 0.05 (≈ 0.118 µM) | 0.025 (≈ 0.0592 µM) | 0.05 (≈ 0.118 µM) | 0.8 (≈ 1.89 µM) | 0.006 (≈ 0.0142 µM)
9 | NCc1cccc(C2CCN(c3cc4c(cc3F)c(=O)c(C(=O)O)cn4C3CC3)C2)c1 (stereo not shown) [Example 7, 7-[3-[3-(Aminomethyl)phenyl]-1-pyrrolidinyl]-1-cyclopropyl-6-fluoro-1,4-dihydro-4-oxo-3-quinolinecarboxylic acid] | ≤ 0.003 | 0.025 (≈ 0.0593 µM) | 0.05 (≈ 0.119 µM) | 0.1 (≈ 0.237 µM) | 0.006 (≈ 0.0142 µM) | 0.05 (≈ 0.119 µM) | 0.013 (≈ 0.0308 µM) | 0.1 (≈ 0.237 µM) | 0.8 (≈ 1.9 µM) | ≤ 0.003
10 | O=C(O)c1cn(C2CC2)c2cc(N3CCC(c4ccccn4)C3)c(F)cc2c1=O (stereo not shown) [Example 17, 1-Cyclopropyl-6-fluoro-1,4-dihydro-4-oxo-7-[3-(2-pyridinyl)-1-pyrrolidinyl]-3-quinolinecarboxylic acid] | 0.05 (≈ 0.127 µM) | 0.006 (≈ 0.0153 µM) | 0.1 (≈ 0.254 µM) | 0.2 (≈ 0.508 µM) | ≤ 0.003 | 0.1 (≈ 0.254 µM) | 0.05 (≈ 0.127 µM) | 0.2 (≈ 0.508 µM) | 0.8 (≈ 2.03 µM) | 0.05 (≈ 0.127 µM)
11 | Nc1c(F)c(N2CCC(c3cccnc3)C2)c(F)c2c1c(=O)c(C(=O)O)cn2C1CC1 (stereo not shown) [Example 22, 5-Amino-1-cyclopropyl-6,8-difluoro-1,4-dihydro-4-oxo-7-[3-(3-pyridinyl)-1-pyrrolidinyl]-3-quinoline-carboxylic acid] | 0.025 (≈ 0.0586 µM) | 0.006 (≈ 0.0141 µM) | 0.1 (≈ 0.235 µM) | 0.2 (≈ 0.469 µM) | ≤ 0.003 | 0.1 (≈ 0.235 µM) | 0.05 (≈ 0.117 µM) | 0.2 (≈ 0.469 µM) | 1.6 (≈ 3.75 µM) | 0.025 (≈ 0.0586 µM)
12 | Nc1c(F)c(N2CCC(c3ccncc3)C2)c(F)c2c1c(=O)c(C(=O)O)cn2C1CC1 (stereo not shown) [Example 25, 5-Amino-1-cyclopropyl-6,8-difluoro-1,4-dihydro-4-oxo-7-[3-(4-pyridinyl)-1-pyrrolidinyl]-3-quinoline-carboxylic acid] | 0.05 (≈ 0.117 µM) | 0.006 (≈ 0.0141 µM) | 0.2 (≈ 0.469 µM) | 0.4 (≈ 0.938 µM) | ≤ 0.003 | 0.2 (≈ 0.469 µM) | 0.05 (≈ 0.117 µM) | 0.4 (≈ 0.938 µM) | 3.1 (≈ 7.27 µM) | 0.05 (≈ 0.117 µM)
13 | CNCc1cccc(C2CCN(c3c(F)c(N)c4c(=O)c(C(=O)O)cn(C5CC5)c4c3F)C2)c1 (stereo not shown) [Example 13, 5-Amino-1-cyclopropyl-6,8-difluoro-1,4-dihydro-7-[3-[3-[(methylamino)methyl]phenyl]-1-pyrrolidinyl]-4-oxo-3-quinolinecarboxvlic acid] | 0.05 (≈ 0.107 µM) | 0.05 (≈ 0.107 µM) | 0.2 (≈ 0.427 µM) | 0.8 (≈ 1.71 µM) | 0.013 (≈ 0.0277 µM) | 0.2 (≈ 0.427 µM) | 0.05 (≈ 0.107 µM) | 0.4 (≈ 0.854 µM) | 1.6 (≈ 3.42 µM) | 0.05 (≈ 0.107 µM)
